Key:
Assay type in all cases: biochemical
JAK1 = target: T1, JAK1 (Homo sapiens, UniProt P23458); experiment: JAK1 inhibition (Table 4); details: read-out: JAK1 Ki
T1 construct: made in house; host or cells: SF9 insect cells (baculovirus)

TYK2 = target: T2, TYK2 (Homo sapiens, UniProt P29597); experiment: TYK2 inhibition (Table 4)
T2 construct: made in house; host or cells: SF9 insect cells (baculovirus)
T2 sequence (P29597 873-1187): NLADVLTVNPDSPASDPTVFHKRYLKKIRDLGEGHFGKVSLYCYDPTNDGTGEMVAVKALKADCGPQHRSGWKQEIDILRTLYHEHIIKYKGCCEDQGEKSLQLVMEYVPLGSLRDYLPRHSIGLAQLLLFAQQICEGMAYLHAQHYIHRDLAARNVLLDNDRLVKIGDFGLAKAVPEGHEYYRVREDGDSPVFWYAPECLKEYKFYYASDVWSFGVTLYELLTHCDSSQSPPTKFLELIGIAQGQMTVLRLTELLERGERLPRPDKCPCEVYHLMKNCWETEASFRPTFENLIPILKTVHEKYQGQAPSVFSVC

JAK3 = target: T3, JAK3 (Homo sapiens, UniProt P52333); experiment: JAK3 inhibition (Table 4); details: read-out: JAK3 Ki
T3 construct: made in house; host or cells: SF9 insect cells (baculovirus)

JAK2 = target: T4, JAK2 (Homo sapiens, UniProt O60674); experiment: JAK2 inhibition (Table 4); details: read-out: JAK2 Ki
T4 construct: made in house; host or cells: SF9 insect cells (baculovirus)
T4 sequence (O60674 812-1132): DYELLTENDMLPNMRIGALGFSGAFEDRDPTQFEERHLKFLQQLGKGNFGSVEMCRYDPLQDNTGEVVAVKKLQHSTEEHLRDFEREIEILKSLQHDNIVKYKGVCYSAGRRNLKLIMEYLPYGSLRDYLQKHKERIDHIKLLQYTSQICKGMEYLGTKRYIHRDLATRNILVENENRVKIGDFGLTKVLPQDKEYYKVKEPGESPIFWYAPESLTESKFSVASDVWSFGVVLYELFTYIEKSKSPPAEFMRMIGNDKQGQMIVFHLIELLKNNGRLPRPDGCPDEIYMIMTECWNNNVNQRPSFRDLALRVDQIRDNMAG

T3 sequence (P52333 783-1124): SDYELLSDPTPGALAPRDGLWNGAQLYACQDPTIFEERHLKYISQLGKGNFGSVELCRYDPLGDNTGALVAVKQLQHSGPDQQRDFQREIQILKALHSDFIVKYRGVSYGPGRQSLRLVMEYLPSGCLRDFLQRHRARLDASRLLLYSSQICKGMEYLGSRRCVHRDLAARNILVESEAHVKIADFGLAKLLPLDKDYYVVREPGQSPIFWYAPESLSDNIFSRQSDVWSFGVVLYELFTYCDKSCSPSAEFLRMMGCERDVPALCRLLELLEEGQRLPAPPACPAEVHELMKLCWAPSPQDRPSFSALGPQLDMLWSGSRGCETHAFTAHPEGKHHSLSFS
T1 sequence (P23458 852-1154): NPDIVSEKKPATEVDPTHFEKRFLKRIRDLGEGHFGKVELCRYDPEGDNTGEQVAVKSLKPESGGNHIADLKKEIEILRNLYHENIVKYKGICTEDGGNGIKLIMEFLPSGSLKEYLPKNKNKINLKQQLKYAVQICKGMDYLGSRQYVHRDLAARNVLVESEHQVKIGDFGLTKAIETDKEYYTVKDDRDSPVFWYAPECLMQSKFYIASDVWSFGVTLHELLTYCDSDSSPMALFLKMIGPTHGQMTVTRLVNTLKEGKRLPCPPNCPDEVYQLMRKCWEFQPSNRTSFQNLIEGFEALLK

| Compound | Ki (JAK1) [µM] | Ki (TYK2) [µM] | Ki (JAK3) [µM] | Ki (JAK2) [µM] |
| --- | --- | --- | --- | --- |
| N#CCCn1ncc2c1CC[C@@H](n1cnc3cnc4[nH]ccc4c31)C2 [Example 992, 3-[(R)-5-(6H-1,3,5,6-Tetraaza-as-indacen-1-yl)-4,5,6,7-tetrahydro-indazol-1-yl]-propionitrile] | 0.0178 | 0.108 | 0.253 | 0.0373 |
| CC1(O)CCC(n2cnc3cnc4[nH]ccc4c32)CC1 (stereo not drawn) [Example 993, Cis-1-Methyl-4-(6H-1,3,5,6-tetraaza-as-indacen-1-yl)-cyclohexanol] | 0.00167 | 0.00715 | 0.0241 | 0.004 |
| Cc1nc2cnc3[nH]ccc3c2n1C1CCC(C)(O)CC1 (stereo not drawn) [Example 994, Trans-1-Methyl-4-(2-methyl-6H-1,3,5,6-tetraaza-as-indacen-1-yl)-cyclohexanol] | 0.00291 | 0.0253 | 0.017 | 0.00802 |
| OC1(C2CC2)CCC(n2cnc3cnc4[nH]ccc4c32)CC1 (stereo not drawn) [Example 995, Trans-1-Cyclopropyl-4-(6H-1,3,5,6-tetraaza-as-indacen-1-yl)-cyclohexanol] | 0.00641 | 0.0321 | 0.0741 | 0.0137 |
| OC1(C2CC2)CCC(n2cnc3cnc4[nH]ccc4c32)CC1 (stereo not drawn) [Example 996, Cis-1-Cyclopropyl-4-(6H-1,3,5,6-tetraaza-as-indacen-1-yl)-cyclohexanol] | 0.00201 | 0.00923 | 0.0508 | 0.00385 |
| C[C@@H](O)c1nc2cnc3[nH]ccc3c2n1C1CCC(CC#N)CC1 (stereo partly drawn) [Example 1001, {4-[2-((R)-1-Hydroxy-ethyl)-6H-1,3,5,6-tetraaza-as-indacen-1-yl]-cyclohexyl}-acetonitrile] | 0.00115 | 0.00222 | 0.0167 | 0.013 |
| (1-Cyclohexyl-1,6-dihydro-1,2,3,5,6-tetraaza-as-indacen-2-yl)-methanol-d11 [Example 674] | 0.00113 | 0.00187 | 0.0105 | 0.00711 |
| (R)-1-{1-[1-(3,5-Dimethyl-1H-pyrazol-4-ylmethyl)-piperidin-4-yl]-1,6-dihydro-1,3,5,6-tetraaza-as-indacen-2-yl}-ethanol [Example 904] | 0.211 | 2.65 | 1.04 | 1.34 |
| N-tert-Butyl-2-[1-(tetrahydro-pyran-3-yl)-1,6-dihydro-1,3,5,6-tetraaza-as-indacen-2-yl]-acetamide [Example 964] | 0.0789 | 0.487 | 0.164 | 0.274 |
| [3-(6H-1,3,5,6-Tetraaza-as-indacen-1-yl)-cyclopentyl]-carbamic acid 2,2,2-trifluoro-ethyl ester [Example 733] | 0.00077 | 0.0378 | 0.00588 | 0.00483 |

More lines, now with the values ahead:

| Ki (JAK1) [µM] | Ki (TYK2) [µM] | Ki (JAK3) [µM] | Ki (JAK2) [µM] | Compound |
| --- | --- | --- | --- | --- |
| 0.00097 | 0.00476 | 0.111 | 0.0221 | C[C@@H](O)c1nc2cnc3[nH]ccc3c2n1C1CCC(NCC(F)F)CC1 (stereo partly drawn) [Example 1002, (R)-1-{1-[4-(2,2-Difluoro-ethylamino)-cyclohexyl]-1,6-dihydro-1,3,5,6-tetraaza-as-indacen-2-yl}-ethanol] |
| 0.00516 | 0.0382 | 0.129 | 0.0635 | C[C@@H](O)c1nc2cnc3[nH]ccc3c2n1C1CCC(n2ccnn2)CC1 (stereo partly drawn) [Example 1003, (R)-1-[1-(4-[1,2,3]Triazol-1-yl-cyclohexyl)-1,6-dihydro-1,3,5,6-tetraaza-as-indacen-2-yl]-ethanol] |
| 0.00169 | 0.017 | 0.0444 | 0.063 | C[C@@H](O)c1nc2cnc3[nH]ccc3c2n1[C@H]1CC[C@@H](NCC(F)(F)F)C1 [Example 1004, (R)-1-{1-[(1S,3R)-3-(2,2,2-Trifluoro-ethylamino)-cyclopentyl]-1,6-dihydro-1,3,5,6-tetraaza-as-indacen-2-yl}-ethanol] |
| 0.00236 | 0.0181 | 0.0263 | 0.0861 | C[C@@H](O)c1nc2cnc3[nH]ccc3c2n1[C@H]1CC[C@@H](NCC(F)F)C1 [Example 1005, (R)-1-{1-[(1S,3R)-3-(2,2-Difluoro-ethylamino)-cyclopentyl]-1,6-dihydro-1,3,5,6-tetraaza-as-indacen-2-yl}-ethanol] |
| 0.0008 | 0.00352 | 0.0113 | 0.00449 | N#CCCC1CCC(n2c(C(O)CO)nc3cnc4[nH]ccc4c32)CC1 (stereo not shown) [Example 1006, 3-{4-[2-(1,2-Dihydroxy-ethyl)-6H-1,3,5,6-tetraaza-as-indacen-1-yl]-cyclohexyl}-propionitrile] |
| 0.00172 | 0.00793 | 0.098 | 0.0239 | C[C@@H](O)c1nc2cnc3[nH]ccc3c2n1[C@H]1CC[C@H](NCC(F)(F)F)C1 [Example 1008, (R)-1-{1-[(1S,3S)-3-(2,2,2-Trifluoro-ethylamino)-cyclopentyl]-1,6-dihydro-1,3,5,6-tetraaza-as-indacen-2-yl}-ethanol] |
| 0.0595 | 0.0755 | 0.044 | 0.116 | C[C@@H](O)c1nc2cnc3[nH]ccc3c2n1C1CCC(NCC(F)(F)F)CC1 (stereo partly drawn) [Example 1009, (R)-1-{1-[4-(2,2,2-Trifluoro-ethylamino)-cyclohexyl]-1,6-dihydro-1,3,5,6-tetraaza-as-indacen-2-yl}-ethanol] |
| 0.00112 | 0.0022 | 0.00033 | 0.00166 | C[C@@H](O)c1nc2cnc3[nH]cc(Br)c3c2n1C1CCC(CC#N)CC1 (stereo partly drawn) [Example 1010, {4-[8-Bromo-2-((R)-1-hydroxy-ethyl)-6H-1,3,5,6-tetraaza-as-indacen-1-yl]-cyclohexyl}-acetonitrile] |
| 0.018 | 0.0817 | 0.0793 | 0.133 | C[C@@H](O)c1nc2cnc3[nH]ccc3c2n1[C@H]1COCCC1(F)F [Example 1011, (R)-1-[1-((S)-4,4-Difluoro-tetrahydro-pyran-3-yl)-1,6-dihydro-1,3,5,6-tetraaza-as-indacen-2-yl]-ethanol] |
| 0.00943 | 0.0452 | 0.0751 | 0.103 | C[C@@H](O)c1nc2cnc3[nH]ccc3c2n1[C@@H]1COCCC1(F)F [Example 1012, (R)-1-[1-((R)-4,4-Difluoro-tetrahydro-pyran-3-yl)-1,6-dihydro-1,3,5,6-tetraaza-as-indacen-2-yl]-ethanol] |
| 0.00215 | 0.0113 | 0.0289 | 0.0111 | COCCN1CC[C@H](n2c([C@@H](C)O)nc3cnc4[nH]ccc4c32)C(F)(F)C1 [Example 1013, (R)-1-{1-[(S)-3,3-Difluoro-1-(2-methoxy-ethyl)-piperidin-4-yl]-1,6-dihydro-1,3,5,6-tetraaza-as-indacen-2-yl}-ethanol] |
| 0.00253 | 0.0455 | 0.00465 | 0.0186 | COCCN1CC[C@@H](n2c([C@@H](C)O)nc3cnc4[nH]ccc4c32)C(F)(F)C1 [Example 1014, (R)-1-{1-[(R)-3,3-Difluoro-1-(2-methoxy-ethyl)-piperidin-4-yl]-1,6-dihydro-1,3,5,6-tetraaza-as-indacen-2-yl}-ethanol] |
